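The compound was tested at five concentrations on cells cultured in 96-well plates, with a 48-hour exposure period. GI50: concentration for 50% inhibition of growth.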 The source made the active and inactive calls. Rule as the data show it: active = GI50 up to about 1.1 µM and inactive = higher. A value given as a limit tells only on which side of the number the result lay.

This note sets out measurements from ChEMBL document CHEMBL1201862, “PubChem BioAssay data set” (2004).

Some test systems named below: SF-295; SNB-75; MDA-MB-231; 786-0; MOLT-4; HT-29; SF-539; BT-549; NCI-H460; HL-60; CCRF-CEM; MDA-N; HCC 2998; SN12C; NCI-H226; SK-MEL-5; KM12; HOP-92.
Assay in all cases: NCI tumour cell line growth inhibition, 48 h

Consider `Cc1ccc(S(=O)(=O)NC(=O)NC2=NC(C)(C)N(c3ccc(Cl)c(Cl)c3)C(N)=N2)cc1`, for which the GI50 was 41.5 µM (inactive) with SF-295; 31.6 µM (inactive) with SNB-75; 7.98 µM (inactive) in the experiment on MDA-MB-231; 8.3 µM (inactive) in the experiment on 786-0; 7.43 µM (inactive) with MOLT-4; 28.7 µM (inactive) in the experiment on HT-29. Besides, the GI50 in the experiment on SF-539 was 29.2 µM (inactive); in the experiment with BT-549, > 100 µM (inactive); with NCI-H460 it was 36 µM (inactive); in the experiment with HL-60 it was 29.5 µM (inactive); in the experiment on CCRF-CEM it was 4.74 µM (inactive); with MDA-N it was 5.04 µM (inactive). Further, the GI50 in the experiment with HCC 2998 was 15.9 µM (inactive); in the experiment with SN12C, 20.6 µM (inactive); with NCI-H226 it was 67.8 µM (inactive); in the experiment with SK-MEL-5, 18.3 µM (inactive); in the experiment with KM12, 65.8 µM (inactive).
As to `Fc1ccc2nc3n(c2c1)C(c1c(Cl)cccc1Cl)SC3` (configuration not stated), the GI50 is > 100 µM (inactive) with SF-295; 63.4 µM (inactive) with SNB-75; > 100 µM (inactive) with MDA-MB-231; > 100 µM (inactive) in the experiment on 786-0; 6.71 µM (inactive) in the experiment with MOLT-4; > 100 µM (inactive) in the experiment with HT-29. Besides, the GI50 was > 100 µM (inactive) in the experiment on SF-539; > 100 µM (inactive) in the experiment on BT-549; 50.4 µM (inactive) with HOP-92; > 100 µM (inactive) with NCI-H460; 7.89 µM (inactive) in the experiment on MDA-N; > 100 µM (inactive) with HCC 2998. Besides, the GI50 with SN12C, in the experiment on NCI-H226, in the experiment with SK-MEL-5 and in the experiment with KM12 was > 100 µM (inactive) throughout.
For the compound `CC(C)=CCC\C(C)=C/C=C/C(C)=C\C=C\C(C)=C/C=C/C=C(C)\C=C\C=C(C)/C=C/C=C(/C)CCC=C(C)C`, the GI50 with SF-295, with SNB-75, with MDA-MB-231, with 786-0, with MOLT-4 and with HT-29 was > 100 µM (inactive) throughout. Further, the GI50 with SF-539, with BT-549, in the experiment on HOP-92, in the experiment with HL-60, with CCRF-CEM and with MDA-N was > 100 µM (inactive) in each case. Moreover, the GI50 with HCC 2998, with SN12C, in the experiment on NCI-H226, with SK-MEL-5 and in the experiment with KM12 was > 100 µM (inactive) in each case.
For `O=C(OCc1ccccc1)N1CCN(C(=O)OCc2ccccc2)CCN(C(=O)OCc2ccccc2)CCN(C(=O)OCc2ccccc2)CCN(C(=O)OCc2ccccc2)CC1`, the GI50 is > 100 µM (inactive) in the experiment with SF-295; 30.9 µM (inactive) with SNB-75; 39.5 µM (inactive) in the experiment on MDA-MB-231; 16.8 µM (inactive) in the experiment on 786-0; > 100 µM (inactive) in the experiment on MOLT-4; 28.3 µM (inactive) with SF-539. The GI50 in the experiment on BT-549 was > 100 µM (inactive); in the experiment with HOP-92, 70.5 µM (inactive); in the experiment with NCI-H460, > 100 µM (inactive); with MDA-N it was > 100 µM (inactive); with HCC 2998, > 100 µM (inactive); in the experiment on SN12C it was > 100 µM (inactive). In addition, the GI50 was > 100 µM (inactive) with NCI-H226, 18.4 µM (inactive) in the experiment on SK-MEL-5 and > 100 µM (inactive) in the experiment on KM12.
As to `Cn1cc(-c2ccc(CCOC3CCCCO3)cc2)c2c(C#N)cccc21` (configuration not stated), the GI50 in the experiment on SF-295 was 34.7 µM (inactive); in the experiment on MDA-MB-231, 86.1 µM (inactive); in the experiment with 786-0, 92.3 µM (inactive); in the experiment on MOLT-4, 16.1 µM (inactive); in the experiment on HT-29, 17 µM (inactive); in the experiment on SF-539, 55 µM (inactive). For the same compound, the GI50 is 98.6 µM (inactive) with BT-549; > 100 µM (inactive) in the experiment on HOP-92; 42.6 µM (inactive) in the experiment with NCI-H460; 19.9 µM (inactive) in the experiment on HL-60; 24.4 µM (inactive) in the experiment on CCRF-CEM; 48 µM (inactive) with MDA-N. Also, the GI50 with HCC 2998 was 35.7 µM (inactive); with SN12C, > 100 µM (inactive); with SK-MEL-5 it was > 100 µM (inactive); in the experiment with KM12, 61.7 µM (inactive).
In the case of `CCOC(=O)c1sc2nc(SC)nc(Nc3ccc(OC)c(OC)c3)c2c1N`, the GI50 with SF-295 is 6.9 µM (inactive); with MDA-MB-231, 3.78 µM (inactive); in the experiment with 786-0, 5.51 µM (inactive); in the experiment on HT-29, 78 µM (inactive); with SF-539, 1.58 µM (inactive); with BT-549, 17.7 µM (inactive). Besides, the GI50 is 9.89 µM (inactive) in the experiment with HOP-92; < 0.01 µM (active) in the experiment on NCI-H460; > 100 µM (inactive) in the experiment with HL-60; 1.3 µM (inactive) in the experiment with CCRF-CEM; > 100 µM (inactive) in the experiment with MDA-N; 60 µM (inactive) in the experiment on HCC 2998. The GI50 in the experiment with SN12C is 60.3 µM (inactive); in the experiment with NCI-H226, 7.94 µM (inactive); in the experiment with SK-MEL-5 it was 3.61 µM (inactive); in the experiment with KM12, > 100 µM (inactive).
Turning to `COc1cc(/C=C/C(=O)OC2C(O)C3CC(OC(=O)c4cc(OC)c(OC)c(OC)c4)CC2N3C)cc(OC)c1OC` (configuration not stated), the GI50 was 23.4 µM (inactive) in the experiment with SF-295; 8.73 µM (inactive) in the experiment on SNB-75; 16.1 µM (inactive) with MDA-MB-231; 18.5 µM (inactive) in the experiment on 786-0; 46 µM (inactive) with MOLT-4; 14.2 µM (inactive) with HT-29. The GI50 in the experiment on SF-539 was 21.4 µM (inactive); in the experiment on BT-549 it was > 50 µM (inactive); with HOP-92, 9.77 µM (inactive); with NCI-H460, 21.8 µM (inactive); with CCRF-CEM, 17.9 µM (inactive); with MDA-N, 36.4 µM (inactive). For the same compound, the GI50 was 15 µM (inactive) in the experiment with HCC 2998; 9.89 µM (inactive) in the experiment on SN12C; 12.1 µM (inactive) in the experiment on NCI-H226; 16.5 µM (inactive) with SK-MEL-5; 25.3 µM (inactive) in the experiment with KM12.
Take `CC(C)NC(=O)OCc1c2c(n(C)c1COC(=O)NC(C)C)-c1cc(Cl)c(Cl)cc1CC2`: the GI50 in the experiment on SF-295 is 46.5 µM (inactive); with SNB-75, 29.4 µM (inactive); with MDA-MB-231 it was 15.5 µM (inactive); with 786-0, 37.2 µM (inactive); in the experiment on MOLT-4, 18.7 µM (inactive); in the experiment with HT-29, 31 µM (inactive). For the same compound, the GI50 was 50.2 µM (inactive) in the experiment with SF-539; 68.2 µM (inactive) in the experiment with BT-549; 19.5 µM (inactive) in the experiment on HOP-92; 34.4 µM (inactive) in the experiment on NCI-H460; 17.2 µM (inactive) with CCRF-CEM; 32 µM (inactive) in the experiment with MDA-N. In addition, the GI50 in the experiment with HCC 2998 is 14.9 µM (inactive); with SN12C it was 43 µM (inactive); in the experiment with NCI-H226, 8.91 µM (inactive); in the experiment on SK-MEL-5 it was 42.7 µM (inactive); in the experiment with KM12 it was 30.6 µM (inactive).
On to `CC(=O)O[C@H]1C(=O)[C@@]2(C)C(C(OC(=O)c3ccccc3)[C@]3(O)CC(OC(=O)C(O)C(NC(=O)c4ccccc4)c4cccc(Cl)c4)C(C)=C1C3(C)C)[C@]1(OC(C)=O)CO[C@@H]1C[C@@H]2O` (some centres not stated), for which the GI50 is > 10 µM (inactive) in the experiment with SF-295; 2.62 µM (inactive) with SNB-75; > 10 µM (inactive) with MDA-MB-231; > 10 µM (inactive) in the experiment with 786-0; 4.8 µM (inactive) in the experiment on MOLT-4; 2.46 µM (inactive) in the experiment with HT-29. Moreover, the GI50 with SF-539 is 3.24 µM (inactive); with BT-549 it was > 10 µM (inactive); with NCI-H460, 5.28 µM (inactive); in the experiment with HL-60, 1.38 µM (inactive); in the experiment on CCRF-CEM it was 2.62 µM (inactive); in the experiment on MDA-N, 0.984 µM (active). The GI50 in the experiment with HCC 2998 was 4.67 µM (inactive); with SN12C it was 4.17 µM (inactive); with NCI-H226, > 10 µM (inactive); in the experiment with SK-MEL-5, 5.94 µM (inactive); in the experiment with KM12, 3.72 µM (inactive).
In the case of `N#Cc1ccc(/C=[N+](/C=c2ccc(=C=[N-])cc2)N(CCO)C2=NCCN2)cc1`, the GI50 in the experiment on SF-295, in the experiment on SNB-75, with MDA-MB-231, in the experiment with 786-0, in the experiment with MOLT-4 and with HT-29 was > 100 µM (inactive) in each case. The GI50 with SF-539, in the experiment with BT-549, with NCI-H460, with HL-60, with CCRF-CEM and in the experiment with MDA-N was > 100 µM (inactive) throughout. For the same compound, the GI50 with HCC 2998, in the experiment on SN12C, in the experiment with NCI-H226, in the experiment with SK-MEL-5 and with KM12 was > 100 µM (inactive) each time.
Consider `CNc1nc(OC)c2c(n1)n(C)c[n+]2C` [HETEROMINE B], for which the GI50 in the experiment with SF-295, in the experiment on SNB-75, with MDA-MB-231, in the experiment on 786-0, with MOLT-4 and in the experiment with HT-29 was > 100 µM (inactive) each time. The GI50 in the experiment with SF-539 was > 100 µM (inactive); with BT-549, > 100 µM (inactive); with HOP-92, 41.2 µM (inactive); in the experiment on NCI-H460, > 100 µM (inactive); in the experiment on HL-60 it was > 100 µM (inactive); in the experiment on CCRF-CEM it was > 100 µM (inactive). Further, the GI50 with MDA-N, with SN12C, with NCI-H226, with SK-MEL-5 and in the experiment with KM12 was > 100 µM (inactive) in each case.
